Source: patent publication US20030073097A1, “TRAF6-regulated IKK activators (TRIKA1 and TRIKA2) and their use as anti-inflammatory targets” (priority 2001, published 2003)
Peptide text beside a SMILES is read from it. * marks the point of attachment. Cbz = O=C(OCc1ccccc1)*

How the values were obtained:
[1] = molecular target: T1, IKK (Homo sapiens, UniProt O14920+O15111); test: In vitro assay for IKK activation by TRAF6 (IκBα phosphorylation); type: biochemical; conditions: inhibitor at 20 μM added to the assay
T1 construct: IKK complex was purified form HeLa cells or from calf thymus using ATP-Sepharose; endogenous in cells
T1 sequence (O14920 whole entry): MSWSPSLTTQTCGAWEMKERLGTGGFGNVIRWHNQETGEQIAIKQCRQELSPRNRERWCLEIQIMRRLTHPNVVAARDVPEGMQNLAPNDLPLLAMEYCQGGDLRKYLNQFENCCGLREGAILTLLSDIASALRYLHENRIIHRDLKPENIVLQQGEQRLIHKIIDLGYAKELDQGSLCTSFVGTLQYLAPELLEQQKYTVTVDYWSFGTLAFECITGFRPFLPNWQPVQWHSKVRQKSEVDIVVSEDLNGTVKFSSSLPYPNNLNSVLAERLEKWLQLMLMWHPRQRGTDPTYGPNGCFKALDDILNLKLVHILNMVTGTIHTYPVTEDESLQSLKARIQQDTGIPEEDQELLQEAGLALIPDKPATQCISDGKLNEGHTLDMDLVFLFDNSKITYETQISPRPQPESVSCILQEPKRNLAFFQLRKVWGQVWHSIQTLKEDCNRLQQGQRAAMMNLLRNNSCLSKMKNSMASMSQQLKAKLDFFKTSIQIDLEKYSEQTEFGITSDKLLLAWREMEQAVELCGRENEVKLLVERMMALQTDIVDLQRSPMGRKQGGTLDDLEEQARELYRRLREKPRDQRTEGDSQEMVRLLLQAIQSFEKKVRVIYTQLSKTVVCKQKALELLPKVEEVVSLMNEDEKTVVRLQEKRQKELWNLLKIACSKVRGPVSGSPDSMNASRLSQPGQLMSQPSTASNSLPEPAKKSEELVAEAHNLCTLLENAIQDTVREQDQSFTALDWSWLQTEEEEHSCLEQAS
T1 sequence (O15111 whole entry): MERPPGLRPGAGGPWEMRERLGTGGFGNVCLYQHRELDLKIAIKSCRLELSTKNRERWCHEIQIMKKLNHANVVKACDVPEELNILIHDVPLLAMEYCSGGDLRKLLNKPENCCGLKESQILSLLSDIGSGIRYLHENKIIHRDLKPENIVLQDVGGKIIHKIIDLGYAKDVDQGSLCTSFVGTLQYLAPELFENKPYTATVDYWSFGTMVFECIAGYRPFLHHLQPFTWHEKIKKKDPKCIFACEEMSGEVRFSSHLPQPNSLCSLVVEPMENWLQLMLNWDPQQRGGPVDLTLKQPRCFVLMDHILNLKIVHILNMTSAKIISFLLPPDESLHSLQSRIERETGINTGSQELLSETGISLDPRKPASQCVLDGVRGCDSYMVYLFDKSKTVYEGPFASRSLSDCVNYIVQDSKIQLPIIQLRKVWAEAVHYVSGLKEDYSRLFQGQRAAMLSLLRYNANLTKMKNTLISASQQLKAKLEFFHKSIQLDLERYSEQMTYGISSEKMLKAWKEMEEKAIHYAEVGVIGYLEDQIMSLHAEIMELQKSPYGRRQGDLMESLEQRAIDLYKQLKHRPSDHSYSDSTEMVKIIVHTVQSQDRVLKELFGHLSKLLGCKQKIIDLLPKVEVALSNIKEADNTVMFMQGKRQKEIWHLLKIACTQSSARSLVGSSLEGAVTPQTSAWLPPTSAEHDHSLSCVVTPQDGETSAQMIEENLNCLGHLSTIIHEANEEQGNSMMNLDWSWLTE
T1 sequence (Q9Y6K9 whole entry partner): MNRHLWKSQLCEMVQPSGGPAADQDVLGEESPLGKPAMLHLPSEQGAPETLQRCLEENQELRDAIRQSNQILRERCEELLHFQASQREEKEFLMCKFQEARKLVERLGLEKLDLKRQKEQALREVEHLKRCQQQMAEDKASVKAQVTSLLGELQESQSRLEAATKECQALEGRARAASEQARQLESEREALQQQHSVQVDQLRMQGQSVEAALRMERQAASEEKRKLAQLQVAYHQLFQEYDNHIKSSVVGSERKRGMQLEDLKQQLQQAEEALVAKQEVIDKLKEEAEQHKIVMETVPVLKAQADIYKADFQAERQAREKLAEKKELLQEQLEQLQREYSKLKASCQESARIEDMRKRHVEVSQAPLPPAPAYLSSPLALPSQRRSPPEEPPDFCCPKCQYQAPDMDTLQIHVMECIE
Procedure: In vitro Assay for IKK Activation. To detect endogenous IKK activation, cell extracts (5 mg/ml) were incubated with TRAF6 (or, T6RZC, 0.1 μM) together with an ATP regenerating buffer (Chen et al., 1995). After incubation at 30° C. for 1 hour, the reaction was analyzed by immunoblotting with a phospho-IκBα specific antibody. To identify intermediary factors involved in TRAF6-mediated IKK activation, the inventors used a reconstitution assay by adding ^35S-IκBα (0.5 μl) and purified IKK complex (5 nM) to a 5 μl reaction mixture that also contains ATP (2 mM), TRAF6 (0.1 μM), and column fractions (0.5-1 μl). In most IKK activation assays, E1 (0.1 μM) and Ub (0.1 mM) were also added to enhance the reaction, although they can be supplied from the wheat germ extracts used for in vitro translation of IκBα. As an assay for purification of TRIKA1, reaction mixtures also contain 0.5 μg TRIKA2/FrIIa, a fraction eluted from Q-Sepharose with 0.2M NaCl. The reaction was carried out at 30° C. for 1 hour, and then analyzed using a PhosphorImager (Molecular Dynamics) following SDS-PAGE.

[2] = tested on: proteasome; conditions: 20 μM; Chen et al., 1995; cited from earlier work
[3] = tested on: T6RZC stable 293 cells; test: Coumermycin A-induced TRAF6-gyrase B (T6RZC) dimerization in stable 293 cells, IκBα degradation; type: cell-based, human; conditions: 293 cells stably expressing T6RZC; coumermycin A 1 μM
Procedure: Generation of TRAF6-gyraseB stable cell lines. The TRAF6-gyrase B fusion was constructed by replacing the C-terminal TRAF domain of TRAF6 (residues 1-358) with the N-terminal fragment of bacterial gyrase B (T6RZC). Another chimeric construct contained residues 1-291 of TRAF6 (T6RZ). These chimeras were cloned into the mammalian expression vector pEF-IRES-P (Deng et al., 2000). Following transfection of DNA into 293 cells, stable clones were selected in puromycin (1 μg/ml). To induce the dimerization of TRAF6 and subsequent activation of the JNK and IKK pathways, cells were treated with coumermycin A (1 μM) for different lengths of time, and then cell extracts prepared for further analysis.

Compound | Inhibition of IKK activation by TRAF6 [1] | Block of proteasomal activity [2] | Degradation of IκBα upon addition of the dimerizer [3]
CC(C)C[C@@H](C=O)NC(=O)[C@H](CC(C)C)NC(=O)[C@H](CC(C)C)NC(=O)OCc1ccccc1 [MG132] (Cbz-Leu-Leu-Leu-aldehyde) | No inhibition | completely block | –
CO[C@H]1[C@H](OC(=O)c2ccc(C)[nH]2)[C@H](O)[C@@H](Oc2ccc3c(O)c(NC(=O)c4c[nH]c(C(=O)Nc5c(O)c6ccc(O[C@H]7OC(C)(C)[C@@H](OC)[C@H](OC(=O)c8ccc(C)[nH]8)[C@@H]7O)c(C)c6oc5=O)c4C)c(=O)oc3c2C)OC1(C)C [coumermycin A] | – | – | rapidly degraded
CC(=O)N[C@@H](CSC(=O)[C@]1([C@@H](O)C(C)C)NC(=O)[C@H](C)[C@@H]1O)C(=O)O [lactacystin] | No inhibition | completely block | –
